The source of these data is ChEMBL document CHEMBL1201862, “PubChem BioAssay data set” (2004).

Each structure is given as a SMILES string.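 1) Cells in 96-well plates. 2) Compound, 48 h, 5 concentrations. 3) Linear interpolation between surrounding doses. 4) Unreached endpoint = highest concentration. Here, GI50 denotes the concentration required for 50% inhibition of growth.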 Activity calls are given as the source filed them. Cut-off read from the data, not from the text of the source: active = GI50 up to about 1.1 µM and inactive = higher.

What all share (test): inhibition of tumour cell growth, NCI panel, 48 h
In assay [1] the test system is 786-0.
Assay [2] deals with A498.
The test system of assay [3] is CCRF-CEM.
For assay [4], the system named is EKVX.
Assay [5] concerns HCC 2998.
Assay [6] concerns HCT-116.
Assay [7] concerns HOP-92.
Assay [8] deals with HT-29.
The subject of assay [9] is IGROV-1.
Assay [10] has as its system KM12.
For assay [11], the system named is LOX IMVI.
The test system of assay [12] is MDA-MB-231.
The test system of assay [13] is MOLT-4.
Assay [14] has as its system NCI-H23.
For assay [15], the system named is NCI-H522.
Assay [16] concerns OVCAR-8.
Assay [17] has as its system SF-295.
The subject of assay [18] is TK-10.
The subject of assay [19] is M14.
For assay [20], the system named is UACC-62.

Regarding `Sc1ncc2[nH]nnc2n1`, the GI50 in assay [1], in [2], in assay [3], in [4], in [5] and in [6] was > 100 µM (inactive) each time. Besides, the GI50 in assay [7], in assay [8], in assay [9], in [10], in assay [11] and in assay [12] was > 100 µM (inactive) throughout. The GI50 in assay [13], in [14], in [15], in assay [16], in assay [17] and in [18] was > 100 µM (inactive) throughout.

In the case of `CCOP(=O)(OCC)/C(C#N)=C/c1coc2cc(C)cc(C)c2c1=O`, the GI50 in [1], in [2], in assay [3], in assay [4], in [5] and in assay [6] was > 100 µM (inactive) throughout. For the same molecule, the GI50 in [7], in [8], in [9], in assay [10], in assay [11] and in assay [19] was > 100 µM (inactive) throughout. The GI50 in [12], in assay [13], in assay [14], in assay [15], in assay [16] and in assay [17] was > 100 µM (inactive) in each case. In addition, in assay [20], the GI50 is 67 µM (inactive).

For the molecule `CC1(C)C/C(=N/O)c2c(nc3ccc4ccccc4c3c2-c2ccc(Cl)cc2)C1`, the GI50 in assay [1] is 3.79 µM (inactive); in assay [2], 19.5 µM (inactive); in [3] it was 10.9 µM (inactive); in assay [4] it was 15.7 µM (inactive); in assay [5] it was 21.6 µM (inactive); in [6], 11 µM (inactive). In addition, the GI50 is 18.3 µM (inactive) in assay [7]; 15.4 µM (inactive) in assay [8]; 14.9 µM (inactive) in [9]; 42 µM (inactive) in assay [10]; 13.7 µM (inactive) in assay [11]; 33.5 µM (inactive) in [19]. Moreover, the GI50 is 11.6 µM (inactive) in assay [12]; 18.2 µM (inactive) in [13]; 22 µM (inactive) in assay [14]; 15.3 µM (inactive) in assay [15]; 12.5 µM (inactive) in assay [16]; 10.9 µM (inactive) in [17]. In addition, the GI50 in assay [18] is 16.1 µM (inactive); in assay [20] it was 17.3 µM (inactive).

For `Cn1c(SCc2ccc(F)cc2)nnc1C12CC3CC(CC(C3)C1)C2`, the GI50 in [1] is 35.8 µM (inactive); in assay [2], 11 µM (inactive); in assay [3] it was 17.1 µM (inactive); in assay [4] it was 37.1 µM (inactive); in assay [5], 39.2 µM (inactive); in assay [6] it was 23.3 µM (inactive). Also, the GI50 in assay [7] is 25 µM (inactive); in [8] it was 16.1 µM (inactive); in [9] it was 12.7 µM (inactive); in assay [11], 22.2 µM (inactive); in assay [19], 24.2 µM (inactive); in assay [12], 20.1 µM (inactive). The GI50 in assay [13] is 13.6 µM (inactive); in assay [14], 50.6 µM (inactive); in assay [15], 36.9 µM (inactive); in [16], 31.8 µM (inactive); in assay [17], 50.8 µM (inactive); in assay [20], 27.1 µM (inactive).

With `CCOC(=O)c1c(N2CCCC2)[nH]c(=O)c(C(c2ccc(N(C)C)cc2)c2c(O)c(C(=O)OCC)c(N3CCCC3)[nH]c2=O)c1O`, the GI50 in [1], in [2], in [3], in assay [4], in assay [5] and in assay [6] was > 100 µM (inactive) throughout. In addition, the GI50 in [7] was > 100 µM (inactive); in assay [8] it was > 100 µM (inactive); in assay [10], > 100 µM (inactive); in [11] it was > 100 µM (inactive); in assay [19] it was > 100 µM (inactive); in assay [12] it was 82.2 µM (inactive). In addition, the GI50 in [13] was > 100 µM (inactive); in assay [14], 95.5 µM (inactive); in [15] it was > 100 µM (inactive); in [16], > 100 µM (inactive); in [17] it was > 100 µM (inactive); in assay [18] it was 94.2 µM (inactive). The GI50 in assay [20] was > 100 µM (inactive).

Turning to `COc1ccc(/N=N/c2ccc3oc(=O)c(C(=O)Nc4ccc(OC)cc4)cc3c2)cc1`, the GI50 in assay [1] is 14.1 µM (inactive); in assay [2], 2.77 µM (inactive); in assay [3] it was 4.89 µM (inactive); in assay [4], 28.5 µM (inactive); in [5], 19.4 µM (inactive); in assay [6], 11.2 µM (inactive). Also, the GI50 is 18.4 µM (inactive) in assay [7]; 22.6 µM (inactive) in [8]; 16.1 µM (inactive) in [9]; 13.8 µM (inactive) in [10]; 3.71 µM (inactive) in assay [11]; 16.9 µM (inactive) in assay [19]. Further, the GI50 was 23.5 µM (inactive) in assay [12]; 6.15 µM (inactive) in assay [13]; 17.4 µM (inactive) in assay [14]; 26.5 µM (inactive) in assay [15]; 14.3 µM (inactive) in [16]; 21.3 µM (inactive) in assay [17]. Also, in assay [18], the GI50 is 22.4 µM (inactive).

Turning to `CCOC(=O)CCCN`, the GI50 in [1], in assay [2], in assay [3], in assay [4], in assay [5] and in [6] was > 100 µM (inactive) each time. Besides, the GI50 in assay [7], in assay [8], in assay [9], in assay [10], in [11] and in [19] was > 100 µM (inactive) each time. Moreover, the GI50 in assay [12], in assay [13], in [14], in assay [15], in assay [16] and in [17] was > 100 µM (inactive) each time. The GI50 in assay [18] was > 100 µM (inactive).

As for `O=[N+]([O-])c1ccc2c(/N=N/c3ccc4ccccc4c3O)c(O)cc(S(=O)(=O)O)c2c1`, the GI50 in [1] is 18.7 µM (inactive); in assay [2], 35.3 µM (inactive); in assay [3], 8.77 µM (inactive); in [4], 14.7 µM (inactive); in assay [5] it was 39.5 µM (inactive); in [6], 19.5 µM (inactive). The GI50 was 21.6 µM (inactive) in [7]; 44.5 µM (inactive) in assay [8]; 8.65 µM (inactive) in assay [9]; 31.8 µM (inactive) in assay [10]; 6.65 µM (inactive) in assay [11]; 6.76 µM (inactive) in assay [19]. The GI50 in [12] was 35 µM (inactive); in assay [13], 3.98 µM (inactive); in [14], 31.3 µM (inactive); in [15] it was 7.71 µM (inactive); in [16] it was 7.41 µM (inactive); in [17], 32 µM (inactive). Also, the GI50 in assay [18] was > 65.3 µM (inactive); in [20] it was 7.21 µM (inactive).

As for `COc1ccc(CCc2cc(OC)c(OC)c(OC)c2)cc1`, the GI50 was 0.15 µM (active) in assay [1]; < 0.0207 µM (active) in [2]; 0.0204 µM (active) in [3]; 1.18 µM (inactive) in assay [4]; 0.0568 µM (active) in assay [5]; 0.0214 µM (active) in assay [6]. Besides, the GI50 in assay [7] is 0.805 µM (active); in assay [8], 0.0235 µM (active); in assay [9], 0.0612 µM (active); in assay [10], 0.0118 µM (active); in assay [11], 0.0372 µM (active); in assay [19], 0.0318 µM (active). The GI50 is 0.296 µM (active) in [12]; 0.0331 µM (active) in [13]; 0.0743 µM (active) in [14]; 0.0195 µM (active) in [15]; 0.1 µM (active) in assay [16]; 0.0178 µM (active) in [17]. Besides, the GI50 in assay [18] was 2.64 µM (inactive); in [20], 0.0165 µM (active).

As to `Cc1ccc2c(O)cc(-c3ccc4ccccc4c3)nc2n1`, the GI50 was 3.94 µM (inactive) in assay [1]; 3.4 µM (inactive) in assay [2]; 3.66 µM (inactive) in [3]; 5.96 µM (inactive) in assay [4]; 10.8 µM (inactive) in [5]; 1.5 µM (inactive) in [7]. In addition, the GI50 in assay [8] is 3.75 µM (inactive); in assay [9], 2.6 µM (inactive); in assay [10], 3.21 µM (inactive); in assay [11], 5.14 µM (inactive); in assay [19] it was 8.89 µM (inactive); in assay [12], 14.3 µM (inactive). Besides, the GI50 in [13] was 4.45 µM (inactive); in assay [14], 4.41 µM (inactive); in assay [15], 3.32 µM (inactive); in assay [16], 5.82 µM (inactive); in assay [18], 8.45 µM (inactive); in assay [20], 3.64 µM (inactive).
